Test results from patent publication US8859555B2, “Lysine Specific Demethylase-1 inhibitors and their use” (Oryzon Genomics S.A., priority 2009, dated 2014).
Where a name gives a salt, the structure may show the parent alone. Read-outs that look alike come from different tables or passages of the source.

Experiments:
[1] = biological target: T1, Human recombinant monoamine oxidase MAO-A (Homo sapiens, UniProt P21397); assay: MAO-A kynuramine fluorescence inhibition assay; type: biochemical
T1 construct: purchased Sigma Aldrich
T1 sequence (P21397 1-527): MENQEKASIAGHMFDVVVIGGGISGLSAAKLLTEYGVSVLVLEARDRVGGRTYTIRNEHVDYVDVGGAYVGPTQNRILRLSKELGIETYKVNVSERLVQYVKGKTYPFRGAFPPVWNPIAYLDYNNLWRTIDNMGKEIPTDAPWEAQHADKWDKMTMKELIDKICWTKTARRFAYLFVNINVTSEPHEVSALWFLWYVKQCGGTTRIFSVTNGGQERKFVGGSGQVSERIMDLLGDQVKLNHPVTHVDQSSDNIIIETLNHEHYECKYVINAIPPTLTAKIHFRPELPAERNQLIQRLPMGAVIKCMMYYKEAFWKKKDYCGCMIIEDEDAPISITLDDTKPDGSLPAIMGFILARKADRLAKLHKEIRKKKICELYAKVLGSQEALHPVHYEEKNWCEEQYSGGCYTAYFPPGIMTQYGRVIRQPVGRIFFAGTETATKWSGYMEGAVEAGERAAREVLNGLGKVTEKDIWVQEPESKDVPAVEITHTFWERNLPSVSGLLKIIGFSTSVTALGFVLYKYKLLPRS
Description: (§1) Human recombinant monoamine oxidase proteins MAO-A and MAO-B were purchased from Sigma Aldrich. […] In order to monitor MAO enzymatic activities and/or their inhibition rate by inhibitor(s) of interest, a fluorescent-based (inhibitor)-screening assay was set up. 3-(2-Aminophenyl)-3-oxopropanamine (kynuramine dihydrobromide, Sigma Aldrich), a non fluorescent compound was chosen as a substrate. Kynuramine is a non-specific substrate for both MAOs activities. While undergoing oxidative deamination by MAO activities, kynuramine is converted into 4-hydroxyquinoline (4-HQ), a resulting fluorescent product.
(§2) The monoamine oxidase activity was estimated by measuring the conversion of kynuramine into 4-hydroxyquinoline. Assays were conducted in 96-well black plates with clear bottom (Corning) in a final volume of 100 μL. The assay buffer was 100 mM HEPES, pH 7.5. Each experiment was performed in triplicate within the same experiment.
(§3) Briefly, a fixed amount of MAO (0.25 μg for MAO-A and 0.5 μg for MAO-B) was incubated on ice for 15 minutes in the reaction buffer, in the absence and/or in the presence of various concentrations of inhibitor (e.g., from 0 to 50 μM, depending on the inhibitor strength).
(§4) After leaving the enzyme(s) interacting with the inhibitor, 60 to 90 μM of kynuramine was added to each reaction for MAO-B and MAO-A assay respectively, and the reaction was left for 1 hour at 37° C. in the dark. The oxidative deamination of the substrate was stopped by adding 50 μL (v/v) of NaOH 2N. The conversion of kynuramine to 4-hydroxyquinoline, was monitored by fluorescence (excitation at 320 nm, emission at 360 nm) using a microplate reader (Infinite 200, Tecan). Arbitrary units were used to measure levels of fluorescence produced in the absence and/or in the presence of inhibitor.
(§5) The Ki of each inhibitor was measure at Vmax/2.

[2] = biological target: T2, Human recombinant monoamine oxidase MAO-B (Homo sapiens, UniProt P27338); assay: MAO-B kynuramine fluorescence inhibition assay; type: biochemical; details: Ki range class
T2 construct: purchased Sigma Aldrich
T2 sequence (P27338 1-520): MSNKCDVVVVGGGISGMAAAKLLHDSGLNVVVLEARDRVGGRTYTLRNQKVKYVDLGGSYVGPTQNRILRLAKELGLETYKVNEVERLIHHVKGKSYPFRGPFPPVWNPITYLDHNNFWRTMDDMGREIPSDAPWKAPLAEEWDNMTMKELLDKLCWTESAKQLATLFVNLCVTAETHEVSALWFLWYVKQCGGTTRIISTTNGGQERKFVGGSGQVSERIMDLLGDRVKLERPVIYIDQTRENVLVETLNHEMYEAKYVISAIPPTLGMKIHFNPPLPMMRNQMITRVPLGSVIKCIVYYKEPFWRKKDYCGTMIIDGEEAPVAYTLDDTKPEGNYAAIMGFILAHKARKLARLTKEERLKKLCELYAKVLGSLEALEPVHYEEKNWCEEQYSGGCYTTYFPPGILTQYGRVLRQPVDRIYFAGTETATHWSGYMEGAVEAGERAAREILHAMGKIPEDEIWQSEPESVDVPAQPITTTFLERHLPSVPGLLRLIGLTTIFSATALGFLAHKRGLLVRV
Description: as §1, §2, §3, §4, §5

[3] = biological target: T3, Human recombinant LSD1 protein (Homo sapiens, UniProt O60341); assay: LSD1 inhibition, Amplex Red peroxide/peroxidase-coupled demethylase assay; type: biochemical; details: for Ki: Ki range class
T3 construct: purchased BPS Bioscience Inc
Description: Human recombinant LSD1 protein was purchased from BPS Bioscience Inc. In order to monitor LSD1 enzymatic activity and/or its inhibition rate by our inhibitor(s) of interest, di-methylated H3-K4 peptide (Millipore) was chosen as a substrate. The demethylase activity was estimated, under aerobic conditions, by measuring the release of H2O2 produced during the catalytic process, using the Amplex® Red peroxide/peroxidase-coupled assay kit (Invitrogen).
Within the experiment, each concentration of inhibitor was tested in triplicate. […] The enzymatic reactions were set up in a 50 mM sodium phosphate, pH 7.4 buffer. At the end of the incubation, Amplex® Red reagent and horseradish peroxidase (HPR) solution were added to the reaction according to the recommendations provided by the supplier (Invitrogen), and left to incubate for 30 extra minutes at room temperature in the dark. A 1 μM H2O2 solution was used as a control of the kit efficiency. The conversion of the Amplex® Red reagent to resorufin due to the presence of H2O2 in the assay, was monitored by fluorescence (excitation at 540 nm, emission at 590 nm) using a microplate reader (Infinite 200, Tecan). Arbitrary units were used to measure level of H2O2 produced in the absence and/or in the presence of inhibitor.
The maximum demethylase activity of LSD1 was obtained in the absence of inhibitor and corrected for background fluorescence in the absence of LSD1. The Ki of each inhibitor was estimated at half of the maximum activity.

[4] = tested on: human colon cancer cell line HCT116; assay: Cancer cell line study, alamarBlue viability assay; type: cell-based; details: HCT-116, dose required to inhibit cell growth by 50%, 72 hours, read-out: EC50 value for HCT-116 cells
Description: The human colon cancer cell line HCT116 was obtained from the American Type Culture Collection (ATCC; CCL-247). The HCT116 cell line was maintained in DMEM GlutaMAX (Invitrogen) supplemented with 10% fetal calf serum. Cells were grown in a humidified incubator at 37 C in 5% CO2. Cells were plated in 96-well plates at a density of 6000 cells/well in 100 μl medium 24 h before addition of drugs. They were then added in concentrations from 100 μM to 0.45 nM (each concentration in triplicate). To do so, a drugs-dilution plate at twice the screening concentrations was prepared. 72 hours later, alamarBlue (Biosource, Invitrogen) viability assay was performed following manufacturer's protocol. In brief, alamarBlue diluted in media was added to cells to have a 5% solution. Cells were incubated at 37 C, 3 hours and at room temperature, 30 min. Cells with no drug and, cells with no drug and lysed with triton X-100 were used as controls. Fluorescence was monitored at 530 nm excitation and 590 nm emission wavelengths. Results were quantified using Infinite F200 Microplate Reader (Tecan Group, Ltd.). EC50 were calculated as the dose of drugs required to inhibit cell growth by 50%, with Origin 7.0 computer program.

[5] = Ki range class, read-out: MAO A (Ki)

SMILES | Ki [1, 5] [µM] | Ki [2] [µM] | Ki [3] [µM] | Ki ([1]; Ki (IC50), in these assays described herein, read-out: Ki for MAO-A) [µM] | MAO A (Ki) ([1]; Ki range class) | EC50 [4] [µM] | MAO B (Ki) [2] | Ki value for LSD1 lower than Ki values for MAO-A and MAO-B ([3]; selectivity LSD1 versus MAO-A and MAO-B)
CN1CCN(CCN[C@@H]2C[C@H]2c2ccccc2)CC1 (relative stereo) [Example 1, N-[2-(4-methylpiperazin-1-yl)ethyl]-N-[(trans)-2-phenylcyclopropyl]amine dihydrochloride salt] | > 40 | 1 to 40 | 0.001 to 0.1 |  |  |  |  | 
c1ccc([C@@H]2C[C@H]2NCCNC2CC2)cc1 (relative stereo) [Example 2, N-cyclopropyl-N′-[(trans)-2-phenylcyclopropyl]ethane-1,2-diamine dihydrochloride salt] | 1 to 40 | 0.1 to 1 | 0.1 to 1 |  |  |  |  | 
CN(C)CCNCCN[C@@H]1C[C@H]1c1ccccc1 (relative stereo) [Example 3, N,N-dimethyl-N′-(2-{[(trans)-2-phenylcyclopropyl]amino}ethyl)ethane-1,2-diamine] | > 40 | 1 to 40 | 0.1 to 1 |  |  |  |  | 
Cl.Cl.c1ccc([C@@H]2C[C@H]2NCCN2CCNCC2)cc1 (relative stereo) [Example 7, N-[(trans)-2-phenylcyclopropyl]-N-(2-piperazin-1-ylethyl)amine dihydrochloride salt] |  | > 40 | 0.001 to 0.1 | ~40 | I, II |  |  | 
CCN(CC)CCN[C@@H]1C[C@H]1c1ccccc1 (relative stereo) [Example 8, N1,N1-diethyl-N2-((trans)-2-phenylcyclopropyl)ethane-1,2-diamine dihydrochloride salt] | 1 to 40 | > 40 | 0.001 to 0.1 |  |  |  |  | 
c1ccc([C@@H]2C[C@H]2NCCN2CCCCC2)cc1 (relative stereo) [Example 9, N-[(trans)-2-phenylcyclopropyl]-N-(2-piperidin-1-ylethyl)amine] | > 40 | 1 to 40 | 0.001 to 0.1 |  |  |  |  | 
CN1CCN(CCN[C@@H]2C[C@H]2c2ccc(OCc3ccccc3)cc2)CC1 (relative stereo) [Example 10, (trans)-2-(4-(benzyloxy)phenyl)-N-(2-(4-methylpiperazin-1-yl)ethyl)cyclopropanamine dihydrochloride salt] | 1 to 40 | 1 to 40 | 0.001 to 0.1 |  |  | ~11 |  | 
CN1CCN(CCN[C@@H]2C[C@H]2c2ccc(-c3cccc(C(F)(F)F)c3)cc2)CC1 (relative stereo) [Example 11, (Trans)-N-(2-(4-methylpiperazin-1-yl)ethyl)-2-(3′-(trifluoromethyl)biphenyl-4-yl)cyclopropanamine dihydrochloride] | 1 to 40 | 1 to 40 | 0.001 to 0.1 |  |  |  |  | 
CN1CCN(CCN[C@@H]2C[C@H]2c2ccc(-c3cccc(Cl)c3)cc2)CC1 (relative stereo) [Example 12, (Trans)-2-(3′-chlorobiphenyl-4-yl)-N-(2-(4-methylpiperazin-1-yl)ethyl)cyclopropanamine dihydrochloride] |  | 1 to 40 | 0.001 to 0.1 |  |  |  |  | 
FC(F)(F)c1cccc(-c2ccc([C@@H]3C[C@H]3NCCNC3CC3)cc2)c1 (relative stereo) [Example 14, N^1-cyclopropyl-N^2-((trans)-2-(3′-(trifluoromethyl)biphenyl-4-yl)cyclopropyl)ethane-1,2-diamine] | 1 to 40 |  | 0.1 to 1 |  |  |  | II, I II | 
CC(C)CSCCN[C@@H]1C[C@H]1c1ccccc1 (relative stereo) [Example 15, N-(trans)-2-(isobutylthio)-ethyl-2-phenylcyclopropanamine hydrochloride] | 1 to 40 | 1 to 40 | 0.1 to 1 |  |  |  |  | 
CCOCCN[C@@H]1C[C@H]1c1ccccc1 (relative stereo) [Example 16, N-trans-(2-ethoxyethyl)-2-phenylcyclopropanamine hydrochloride] | 1 to 40 | 1 to 40 | 0.1 to 1 |  |  |  |  | 
COCCN[C@@H]1C[C@H]1c1ccccc1 (relative stereo) [Example 17, N-trans-(2-methoxyethyl)-2-phenylcyclopropanamine hydrochloride] | 1 to 40 | 1 to 40 | 0.1 to 1 |  |  |  |  | 
Cl.Cl.N[C@@H]1CCN(CCN[C@H]2CC2c2ccccc2)C1 (stereo partly drawn) [Example 4, (3R)-1-(2-{[(trans)-2-phenylcyclopropyl]amino}ethyl)pyrrolidin-3-amine dihydrochloride salt] | > 40 | > 40 | 0.001 to 0.1 |  |  |  |  | more than 100 fold
CN(C)[C@H]1CCN(CCN[C@H]2CC2c2ccccc2)C1 (stereo partly drawn) [Example 5, (3S)—N,N-dimethyl-1-(2-{[(trans)-2-phenylcyclopropyl]amino}ethyl)pyrrolidin-3-amine dihydrochloride salt] | > 40 | > 40 |  |  |  |  |  | 
CN(C)[C@@H]1CCN(CCN[C@H]2CC2c2ccccc2)C1 (stereo partly drawn) [Example 6, (3R)—N,N-dimethyl-1-(2-{[(trans)-2-phenylcyclopropyl]amino}ethyl)pyrrolidin-3-amine] | 1 to 40 | 1 to 40 |  |  |  |  |  | 
N[C@@H]1CCN(CCN[C@H]2CC2c2ccc(-c3cccc(C(F)(F)F)c3)cc2)C1 (stereo partly drawn) [Example 13, (R)-1-(2-((trans)-2-(3′-(trifluoromethyl)biphenyl-4-yl)cyclopropylamino)ethyl)pyrrolidin-3-amine dihydrochloride] | 1 to 40 | 1 to 40 | 0.001 to 0.1 |  |  |  |  | 
